Earlier results, collected in patent publication US8097602B1, “Method of treating body insect infestation” (Host Pharmaceuticals, LLC, priority 2008, dated 2012).

Conditions: at 20° C.

| Substance | Surface Tension (dynes/cm) |
| --- | --- |
| n-alkanes | 37.8^1 dynes/cm |
| n-fluoroalkanes | 25.9^1 dynes/cm |
